Data as given in ChEMBL document CHEMBL3991601, “The target landscape of clinical kinase drugs” (Science, 2017).
The source made the active and inactive calls.

Key:
[1] = biological target: 26S proteasome regulatory subunit 6B (Homo sapiens, UniProt P43686)
[2] = biological target: Serine/threonine-protein kinase 10 (Homo sapiens, UniProt O94804)
Actin-related protein 2 = Actin-related protein 2 (Homo sapiens, UniProt P61160)
[3] = biological target: Serine/threonine-protein kinase MRCK alpha (Homo sapiens, UniProt Q5VT25)
[4] = biological target: Protein kinase C beta type (Homo sapiens, UniProt P05771)
[5] = biological target: T1, EKC/KEOPS complex subunit TP53RK (Homo sapiens, UniProt Q96S44)
T1 sequence (Q96S44 whole entry): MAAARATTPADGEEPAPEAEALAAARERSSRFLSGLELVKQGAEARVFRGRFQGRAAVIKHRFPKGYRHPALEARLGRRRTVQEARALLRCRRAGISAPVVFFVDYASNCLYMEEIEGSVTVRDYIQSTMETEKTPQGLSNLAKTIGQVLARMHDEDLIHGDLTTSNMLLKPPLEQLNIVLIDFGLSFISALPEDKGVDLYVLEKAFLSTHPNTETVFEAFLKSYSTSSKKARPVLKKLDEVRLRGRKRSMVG

[6] = biological target: T2, DNA replication licensing factor MCM4 (Homo sapiens, UniProt P33991)
T2 sequence (P33991 whole entry): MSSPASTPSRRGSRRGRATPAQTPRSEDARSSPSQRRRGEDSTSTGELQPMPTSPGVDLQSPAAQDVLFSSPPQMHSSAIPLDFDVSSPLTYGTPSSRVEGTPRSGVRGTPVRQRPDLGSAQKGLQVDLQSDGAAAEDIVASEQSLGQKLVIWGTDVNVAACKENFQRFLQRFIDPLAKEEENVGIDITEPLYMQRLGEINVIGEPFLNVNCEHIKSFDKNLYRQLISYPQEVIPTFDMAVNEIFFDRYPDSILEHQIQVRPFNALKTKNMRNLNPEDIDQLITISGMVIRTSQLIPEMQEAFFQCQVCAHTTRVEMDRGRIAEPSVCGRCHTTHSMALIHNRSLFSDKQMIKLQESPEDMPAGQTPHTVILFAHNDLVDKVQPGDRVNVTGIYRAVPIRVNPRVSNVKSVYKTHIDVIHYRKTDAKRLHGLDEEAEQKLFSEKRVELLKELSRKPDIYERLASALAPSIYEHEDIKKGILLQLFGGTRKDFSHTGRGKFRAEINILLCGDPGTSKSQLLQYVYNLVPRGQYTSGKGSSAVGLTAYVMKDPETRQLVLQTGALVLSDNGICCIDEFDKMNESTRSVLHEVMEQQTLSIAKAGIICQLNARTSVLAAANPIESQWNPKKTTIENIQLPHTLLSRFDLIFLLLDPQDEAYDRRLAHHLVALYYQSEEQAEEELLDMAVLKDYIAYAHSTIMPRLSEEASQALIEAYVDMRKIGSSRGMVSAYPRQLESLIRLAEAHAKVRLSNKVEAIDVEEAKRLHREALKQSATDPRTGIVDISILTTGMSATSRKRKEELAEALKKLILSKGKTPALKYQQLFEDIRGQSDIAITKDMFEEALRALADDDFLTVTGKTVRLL

[7] = biological target: T3, Inhibitor of nuclear factor kappa-B kinase subunit epsilon (Homo sapiens, UniProt Q14164)
T3 sequence (Q14164 whole entry): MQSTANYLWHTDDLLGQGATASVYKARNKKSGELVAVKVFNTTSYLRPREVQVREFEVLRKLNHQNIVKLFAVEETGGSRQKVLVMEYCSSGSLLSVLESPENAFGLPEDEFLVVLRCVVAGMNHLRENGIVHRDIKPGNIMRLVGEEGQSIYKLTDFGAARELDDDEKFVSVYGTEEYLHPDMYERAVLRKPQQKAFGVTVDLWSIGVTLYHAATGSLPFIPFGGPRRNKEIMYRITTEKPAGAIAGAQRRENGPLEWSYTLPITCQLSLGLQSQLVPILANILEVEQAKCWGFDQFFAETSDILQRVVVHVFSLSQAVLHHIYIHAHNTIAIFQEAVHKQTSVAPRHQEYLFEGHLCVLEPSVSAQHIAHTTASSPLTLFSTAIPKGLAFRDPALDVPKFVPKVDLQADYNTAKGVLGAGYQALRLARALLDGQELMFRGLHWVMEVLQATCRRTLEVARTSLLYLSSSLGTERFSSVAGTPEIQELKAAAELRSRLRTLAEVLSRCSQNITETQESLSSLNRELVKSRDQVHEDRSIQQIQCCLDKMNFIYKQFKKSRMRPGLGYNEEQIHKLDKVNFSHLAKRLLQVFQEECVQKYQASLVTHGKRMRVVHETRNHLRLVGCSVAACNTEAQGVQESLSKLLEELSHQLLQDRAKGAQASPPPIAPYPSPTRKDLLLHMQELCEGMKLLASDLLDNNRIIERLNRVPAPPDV

Scaffold protein ILK = biological target: T4, Scaffold protein ILK (Homo sapiens, UniProt Q13418)
T4 sequence (Q13418 whole entry): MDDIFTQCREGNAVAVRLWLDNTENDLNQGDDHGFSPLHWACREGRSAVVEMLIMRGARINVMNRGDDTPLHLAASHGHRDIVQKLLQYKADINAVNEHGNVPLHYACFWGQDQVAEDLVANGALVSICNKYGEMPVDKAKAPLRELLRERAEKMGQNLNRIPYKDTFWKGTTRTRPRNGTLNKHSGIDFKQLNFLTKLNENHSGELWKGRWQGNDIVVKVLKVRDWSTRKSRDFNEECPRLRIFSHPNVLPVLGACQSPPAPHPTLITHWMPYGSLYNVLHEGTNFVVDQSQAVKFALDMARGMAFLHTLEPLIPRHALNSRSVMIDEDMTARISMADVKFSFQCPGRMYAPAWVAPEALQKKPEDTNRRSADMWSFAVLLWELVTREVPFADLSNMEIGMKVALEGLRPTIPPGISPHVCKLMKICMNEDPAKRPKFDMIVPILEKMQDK

[8] = biological target: Tyrosine-protein kinase JAK1 (Homo sapiens, UniProt P23458)
[9] = biological target: Casein kinase I isoform delta (Homo sapiens, UniProt P48730)
[10] = biological target: cAMP-dependent protein kinase type II-alpha regulatory subunit (Homo sapiens, UniProt P13861)
Also: in the data inactive means no Kd found up to 30 µM.

Sequence of 26S proteasome regulatory subunit 6B (P43686 whole entry): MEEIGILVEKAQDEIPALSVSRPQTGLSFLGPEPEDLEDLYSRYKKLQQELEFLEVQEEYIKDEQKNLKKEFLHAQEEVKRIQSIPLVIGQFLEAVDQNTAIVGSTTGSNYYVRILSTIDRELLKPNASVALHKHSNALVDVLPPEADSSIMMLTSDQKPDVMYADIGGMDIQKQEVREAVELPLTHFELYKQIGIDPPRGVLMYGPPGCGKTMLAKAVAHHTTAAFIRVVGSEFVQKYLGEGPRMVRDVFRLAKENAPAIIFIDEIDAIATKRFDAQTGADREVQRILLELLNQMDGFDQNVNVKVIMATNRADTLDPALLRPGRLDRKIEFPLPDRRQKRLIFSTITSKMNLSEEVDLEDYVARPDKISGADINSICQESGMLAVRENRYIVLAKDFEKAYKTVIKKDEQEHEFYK
Sequence of Tyrosine-protein kinase JAK1 (P23458 whole entry, canonical isoform): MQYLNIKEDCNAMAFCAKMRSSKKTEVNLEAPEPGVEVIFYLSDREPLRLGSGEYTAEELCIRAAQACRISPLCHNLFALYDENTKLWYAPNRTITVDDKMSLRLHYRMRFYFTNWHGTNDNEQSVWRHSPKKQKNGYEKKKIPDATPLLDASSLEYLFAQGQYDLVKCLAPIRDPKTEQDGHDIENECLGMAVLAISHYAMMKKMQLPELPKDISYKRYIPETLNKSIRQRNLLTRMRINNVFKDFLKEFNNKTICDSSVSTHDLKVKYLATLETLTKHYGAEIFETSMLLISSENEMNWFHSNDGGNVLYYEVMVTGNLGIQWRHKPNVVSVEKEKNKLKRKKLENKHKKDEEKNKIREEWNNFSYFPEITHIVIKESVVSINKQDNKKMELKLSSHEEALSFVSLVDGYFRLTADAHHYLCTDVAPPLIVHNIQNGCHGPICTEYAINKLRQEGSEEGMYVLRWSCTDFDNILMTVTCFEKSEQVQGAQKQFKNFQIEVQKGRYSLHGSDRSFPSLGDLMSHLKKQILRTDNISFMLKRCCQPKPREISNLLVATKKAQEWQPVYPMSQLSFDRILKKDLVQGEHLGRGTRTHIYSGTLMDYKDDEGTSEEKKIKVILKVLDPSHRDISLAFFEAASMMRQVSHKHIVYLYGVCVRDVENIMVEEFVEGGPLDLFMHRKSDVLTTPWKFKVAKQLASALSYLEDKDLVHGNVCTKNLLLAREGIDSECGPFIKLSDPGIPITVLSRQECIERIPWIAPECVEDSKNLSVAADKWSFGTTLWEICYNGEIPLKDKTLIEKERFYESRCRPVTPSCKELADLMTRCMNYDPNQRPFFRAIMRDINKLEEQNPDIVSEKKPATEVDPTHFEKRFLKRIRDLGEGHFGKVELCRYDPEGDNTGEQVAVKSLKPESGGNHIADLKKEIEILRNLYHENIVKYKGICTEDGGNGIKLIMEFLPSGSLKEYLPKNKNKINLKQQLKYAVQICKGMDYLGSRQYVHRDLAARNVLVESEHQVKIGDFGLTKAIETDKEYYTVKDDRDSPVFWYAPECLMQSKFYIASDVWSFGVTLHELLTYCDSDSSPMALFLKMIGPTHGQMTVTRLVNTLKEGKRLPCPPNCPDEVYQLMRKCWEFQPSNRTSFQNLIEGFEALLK
Sequence of Serine/threonine-protein kinase MRCK alpha (Q5VT25 whole entry): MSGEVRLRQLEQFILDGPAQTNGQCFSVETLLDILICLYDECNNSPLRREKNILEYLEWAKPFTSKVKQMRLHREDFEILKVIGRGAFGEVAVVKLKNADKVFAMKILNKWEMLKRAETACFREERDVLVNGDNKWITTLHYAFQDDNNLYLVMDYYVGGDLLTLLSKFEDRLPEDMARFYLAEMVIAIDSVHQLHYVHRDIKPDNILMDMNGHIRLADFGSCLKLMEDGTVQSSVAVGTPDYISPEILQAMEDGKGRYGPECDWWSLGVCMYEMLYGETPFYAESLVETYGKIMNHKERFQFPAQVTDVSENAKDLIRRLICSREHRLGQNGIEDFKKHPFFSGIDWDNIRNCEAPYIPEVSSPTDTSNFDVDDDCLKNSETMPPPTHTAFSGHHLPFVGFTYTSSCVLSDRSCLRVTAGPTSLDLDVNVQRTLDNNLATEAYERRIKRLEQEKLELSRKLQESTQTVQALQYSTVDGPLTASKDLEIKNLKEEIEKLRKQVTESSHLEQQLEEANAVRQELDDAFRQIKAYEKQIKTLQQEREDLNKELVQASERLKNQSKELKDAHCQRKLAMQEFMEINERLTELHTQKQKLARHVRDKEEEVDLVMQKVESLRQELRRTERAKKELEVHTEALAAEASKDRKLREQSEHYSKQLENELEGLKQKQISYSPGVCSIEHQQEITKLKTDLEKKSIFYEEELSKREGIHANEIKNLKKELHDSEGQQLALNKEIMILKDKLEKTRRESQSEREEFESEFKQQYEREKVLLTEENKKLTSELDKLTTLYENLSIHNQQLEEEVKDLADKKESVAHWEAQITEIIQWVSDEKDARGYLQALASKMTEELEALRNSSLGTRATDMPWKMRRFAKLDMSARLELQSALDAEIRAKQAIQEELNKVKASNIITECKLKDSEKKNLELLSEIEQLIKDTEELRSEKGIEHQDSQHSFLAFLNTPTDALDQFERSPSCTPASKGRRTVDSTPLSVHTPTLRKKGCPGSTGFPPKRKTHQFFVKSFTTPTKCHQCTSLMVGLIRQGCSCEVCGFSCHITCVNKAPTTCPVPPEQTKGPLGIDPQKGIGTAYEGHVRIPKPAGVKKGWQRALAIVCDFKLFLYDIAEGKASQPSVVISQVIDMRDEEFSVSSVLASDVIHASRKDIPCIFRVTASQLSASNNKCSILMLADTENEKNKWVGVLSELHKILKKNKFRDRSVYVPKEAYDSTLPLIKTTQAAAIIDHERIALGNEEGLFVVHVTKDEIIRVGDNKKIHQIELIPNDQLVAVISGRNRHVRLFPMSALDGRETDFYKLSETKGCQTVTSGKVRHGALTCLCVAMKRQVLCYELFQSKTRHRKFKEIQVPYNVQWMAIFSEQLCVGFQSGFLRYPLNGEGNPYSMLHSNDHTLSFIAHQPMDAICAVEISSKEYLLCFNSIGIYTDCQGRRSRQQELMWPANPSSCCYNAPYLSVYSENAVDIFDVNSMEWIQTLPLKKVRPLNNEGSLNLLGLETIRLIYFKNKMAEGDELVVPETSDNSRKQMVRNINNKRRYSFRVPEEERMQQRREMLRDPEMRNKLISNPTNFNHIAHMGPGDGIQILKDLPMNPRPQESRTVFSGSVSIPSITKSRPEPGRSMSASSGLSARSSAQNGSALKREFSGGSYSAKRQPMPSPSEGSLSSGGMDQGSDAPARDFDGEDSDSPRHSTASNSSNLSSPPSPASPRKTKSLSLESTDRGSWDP
Sequence of Protein kinase C beta type (P05771 whole entry): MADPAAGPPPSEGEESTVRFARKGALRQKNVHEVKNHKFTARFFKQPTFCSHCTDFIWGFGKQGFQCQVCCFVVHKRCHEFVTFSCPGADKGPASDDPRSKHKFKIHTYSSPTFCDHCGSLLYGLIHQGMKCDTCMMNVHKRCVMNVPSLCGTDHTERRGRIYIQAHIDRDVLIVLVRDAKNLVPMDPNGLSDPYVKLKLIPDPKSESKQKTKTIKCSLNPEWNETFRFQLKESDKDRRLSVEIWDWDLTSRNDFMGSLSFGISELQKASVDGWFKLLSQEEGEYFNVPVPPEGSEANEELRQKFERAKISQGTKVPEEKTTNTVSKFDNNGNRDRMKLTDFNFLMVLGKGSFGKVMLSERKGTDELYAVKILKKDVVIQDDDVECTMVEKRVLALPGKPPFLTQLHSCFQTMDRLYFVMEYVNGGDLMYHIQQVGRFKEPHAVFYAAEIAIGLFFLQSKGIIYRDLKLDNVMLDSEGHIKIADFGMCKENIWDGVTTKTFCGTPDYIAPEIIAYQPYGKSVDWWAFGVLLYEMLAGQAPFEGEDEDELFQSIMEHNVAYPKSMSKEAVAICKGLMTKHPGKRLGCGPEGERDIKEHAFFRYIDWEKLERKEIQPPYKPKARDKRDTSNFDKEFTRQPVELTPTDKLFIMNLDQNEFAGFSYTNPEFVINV
Sequence of Casein kinase I isoform delta (P48730 whole entry, canonical isoform): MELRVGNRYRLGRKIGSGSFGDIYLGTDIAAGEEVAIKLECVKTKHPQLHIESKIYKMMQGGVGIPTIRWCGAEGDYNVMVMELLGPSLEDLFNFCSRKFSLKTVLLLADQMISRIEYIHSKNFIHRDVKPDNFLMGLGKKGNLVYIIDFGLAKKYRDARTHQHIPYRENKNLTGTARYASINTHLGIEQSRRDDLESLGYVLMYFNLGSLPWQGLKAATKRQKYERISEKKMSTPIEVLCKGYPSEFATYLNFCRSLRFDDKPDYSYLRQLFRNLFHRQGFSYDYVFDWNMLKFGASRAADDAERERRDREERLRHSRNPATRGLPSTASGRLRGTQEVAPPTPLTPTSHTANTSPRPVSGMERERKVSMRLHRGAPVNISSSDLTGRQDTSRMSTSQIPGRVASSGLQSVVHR
Sequence of cAMP-dependent protein kinase type II-alpha regulatory subunit (P13861 whole entry): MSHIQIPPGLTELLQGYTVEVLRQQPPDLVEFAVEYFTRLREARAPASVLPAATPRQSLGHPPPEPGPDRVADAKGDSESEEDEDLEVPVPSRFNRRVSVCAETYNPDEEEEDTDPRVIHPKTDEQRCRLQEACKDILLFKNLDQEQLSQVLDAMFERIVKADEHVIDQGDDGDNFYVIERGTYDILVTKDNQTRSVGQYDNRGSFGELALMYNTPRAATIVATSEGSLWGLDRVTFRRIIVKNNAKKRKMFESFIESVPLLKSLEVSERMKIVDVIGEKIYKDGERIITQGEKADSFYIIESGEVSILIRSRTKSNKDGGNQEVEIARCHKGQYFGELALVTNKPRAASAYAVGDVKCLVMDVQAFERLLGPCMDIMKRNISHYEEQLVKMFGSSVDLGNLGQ

| Kd [1] | Kd [2] | Kd (Actin-related protein 2) | Kd [3] | Kd [4] | Kd [5] | Kd [6] | Kd [7] | Kd (Scaffold protein ILK) | Kd [8] | Kd [9] | Kd [10] | Structure (SMILES) |
| --- | --- | --- | --- | --- | --- | --- | --- | --- | --- | --- | --- | --- |
| > 30 µM (inactive) | 28.6 µM (active) | > 30 µM (inactive) | > 30 µM (inactive) | > 30 µM (inactive) | > 30 µM (inactive) | > 30 µM (inactive) | > 30 µM (inactive) | > 30 µM (inactive) | > 30 µM (inactive) | > 30 µM (inactive) | > 30 µM (inactive) | C=CC(=O)Nc1cc2c(Nc3ccc(F)c(Cl)c3)ncnc2cc1C#CC(C)(C)N1CCN(C)CC1 [AV-412 FREE BASE] |
| > 30 µM (inactive) | > 30 µM (inactive) | > 30 µM (inactive) | > 30 µM (inactive) | > 30 µM (inactive) | > 30 µM (inactive) | > 30 µM (inactive) | > 30 µM (inactive) | > 30 µM (inactive) | > 30 µM (inactive) | > 30 µM (inactive) | > 30 µM (inactive) | Cc1cc(C(=O)NOCCO)c(Nc2ccc(I)cc2F)n(C)c1=O [AZD-8330] |
| > 30 µM (inactive) | > 30 µM (inactive) | > 30 µM (inactive) | > 30 µM (inactive) | > 30 µM (inactive) | > 30 µM (inactive) | > 30 µM (inactive) | > 30 µM (inactive) | > 30 µM (inactive) | > 30 µM (inactive) | > 30 µM (inactive) | > 30 µM (inactive) | Cn1cnc2c(F)c(Nc3ccc(Br)cc3F)c(C(=O)NOCCO)cc21 [BINIMETINIB] |
| > 30 µM (inactive) | > 30 µM (inactive) | > 30 µM (inactive) | > 30 µM (inactive) | > 30 µM (inactive) | > 30 µM (inactive) | > 30 µM (inactive) | > 30 µM (inactive) | > 30 µM (inactive) | > 30 µM (inactive) | > 30 µM (inactive) | > 30 µM (inactive) | CCn1c(C(=O)N(C2CC2)C2CC2)cc2c3c(ncn3C)c(Nc3cc(C)n(C)n3)nc21 [BMS-911543] |
| > 30 µM (inactive) | > 30 µM (inactive) | > 30 µM (inactive) | > 30 µM (inactive) | > 30 µM (inactive) | > 30 µM (inactive) | > 30 µM (inactive) | > 30 µM (inactive) | > 30 µM (inactive) | > 30 µM (inactive) | > 30 µM (inactive) | > 30 µM (inactive) | COc1cc2ncnc(Oc3cccc(NC(=O)Nc4cc(C(C)(C)C(F)(F)F)on4)c3)c2cc1OC [CEP-32496] |
| > 30 µM (inactive) | > 30 µM (inactive) | > 30 µM (inactive) | > 30 µM (inactive) | > 30 µM (inactive) | > 30 µM (inactive) | > 30 µM (inactive) | > 30 µM (inactive) | > 30 µM (inactive) | > 30 µM (inactive) | > 30 µM (inactive) | > 30 µM (inactive) | Cc1cc(Nc2ncc(Cl)c(Nc3ccccc3S(=O)(=O)C(C)C)n2)c(OC(C)C)cc1C1CCNCC1 [CERITINIB] |
| > 30 µM (inactive) | > 30 µM (inactive) | > 30 µM (inactive) | > 30 µM (inactive) | > 30 µM (inactive) | > 30 µM (inactive) | > 30 µM (inactive) | > 30 µM (inactive) | > 30 µM (inactive) | > 30 µM (inactive) | > 30 µM (inactive) | > 30 µM (inactive) | COc1c(OCCCN2CCOCC2)ccc2c1N=C(NC(=O)c1cnc(N)nc1)N1CCN=C21 [COPANLISIB] |
| > 30 µM (inactive) | > 30 µM (inactive) | > 30 µM (inactive) | > 30 µM (inactive) | > 30 µM (inactive) | > 30 µM (inactive) | > 30 µM (inactive) | > 30 µM (inactive) | > 30 µM (inactive) | > 30 µM (inactive) | > 30 µM (inactive) | > 30 µM (inactive) | COCC(=O)NC/C=C/c1ccc2ncnc(Nc3ccc(Oc4ccc(C)nc4)c(C)c3)c2c1 [CP-724714] |
| > 30 µM (inactive) | 57.5 µM (active) | > 30 µM (inactive) | > 30 µM (inactive) | > 30 µM (inactive) | > 30 µM (inactive) | > 30 µM (inactive) | > 30 µM (inactive) | > 30 µM (inactive) | > 30 µM (inactive) | > 30 µM (inactive) | > 30 µM (inactive) | C#Cc1cccc(Nc2ncnc3cc(OC)c(OCCCCCCC(=O)NO)cc23)c1 [CUDC-101] |
| > 30 µM (inactive) | > 30 µM (inactive) | > 30 µM (inactive) | > 30 µM (inactive) | > 30 µM (inactive) | > 30 µM (inactive) | > 30 µM (inactive) | > 30 µM (inactive) | > 30 µM (inactive) | > 30 µM (inactive) | > 30 µM (inactive) | > 30 µM (inactive) | Cc1nc2cc(-n3ncc(C(=O)c4cc5ccccc5[nH]4)c3N)ccc2[nH]1 [FGFR INHIBITOR DEBIO 1347] |

| Structure (SMILES) | Kd [1] | Kd [2] | Kd (Actin-related protein 2) | Kd [3] | Kd [4] | Kd [5] | Kd [6] | Kd [7] | Kd (Scaffold protein ILK) | Kd [8] | Kd [9] | Kd [10] |
| --- | --- | --- | --- | --- | --- | --- | --- | --- | --- | --- | --- | --- |
| COc1cc([C@@H]2c3cc4c(cc3[C@H](O)[C@H]3COC(=O)[C@@H]23)OCO4)cc(OC)c1OC [AXL-1717] | > 30 µM (inactive) | > 30 µM (inactive) | > 30 µM (inactive) | > 30 µM (inactive) | > 30 µM (inactive) | > 30 µM (inactive) | > 30 µM (inactive) | > 30 µM (inactive) | > 30 µM (inactive) | > 30 µM (inactive) | > 30 µM (inactive) | > 30 µM (inactive) |
| NC(=O)Nc1cc(-c2cccc(F)c2)sc1C(=O)N[C@H]1CCCNC1 [AZD-7762] | > 30 µM (inactive) | 0.36 µM (active) | > 30 µM (inactive) | > 30 µM (inactive) | > 30 µM (inactive) | > 30 µM (inactive) | > 30 µM (inactive) | > 30 µM (inactive) | > 30 µM (inactive) | > 30 µM (inactive) | > 30 µM (inactive) | > 30 µM (inactive) |
